Assay results from patent publication US8703805B2 (Exelixis Patent Company LLC, priority 2005, dated 2014).

The molecules below were run on LXRα and/or LXRβ (assay: LXR/LXRE co-transfection assay (luciferase reporter, CV-1 cells)). Conditions: IC50 or EC50 for LXR (LXRα and/or LXRβ, not distinguished), tested as described in Example 109, CV-1 cells.
Assay type: cell-based, human
Outline: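 Transient co-transfection of CV-1 cells with full-length human LXRα or LXRβ plus RXRα expression plasmids and an LXREx1-Tk-luciferase reporter; compounds (10 μM screen, ≤1% DMSO) incubated 20 h at 37 °C. Luminescence read after lysis; EC50/IC50 from 8-point half-log curves, efficacy relative to a high control or DMSO.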

Row | EC50 | Compound
1 | < 1000 nM | CC(C)(O)c1nn(-c2ccccc2C(F)(F)F)c(-c2ccc(-c3cccc(S(C)(=O)=O)c3)s2)c1Cl [Example 1350, 2-(4-chloro-5-{5-[3-(methylsulfonyl)phenyl]-2-thienyl}-1-[2-(trifluoromethyl)phenyl]-1H-pyrazol-3-yl)propan-2-ol]
2 | < 1000 nM | Cc1cc(-c2cccc(S(C)(=O)=O)c2)ccc1-c1cc(C(C)(C)O)nn1-c1c(Cl)cccc1Cl [Example 147, 2-(1-(2,6-dichlorophenyl)-5-(3-methyl-3′-(methylsulfonyl)biphenyl-4-yl)-1H-pyrazol-3-yl)propan-2-ol]
3 | < 1000 nM | CC(C)(O)c1cc(-c2ccc(-c3cc(C(F)(F)F)nn3-c3cc(Cl)ccc3Cl)s2)cc(S(C)(=O)=O)c1 [Example 1308, 2-[3-{5-[1-(2,5-dichlorophenyl)-3-(trifluoromethyl)-1H-pyrazol-5-yl]-2-thienyl}-5-(methylsulfonyl)phenyl]propan-2-ol]
4 | 1000 to 10000 nM | CC(C)(O)c1cc(-c2ccc(-c3cccc(S(C)(=O)=O)c3)s2)n(-c2cc(C(F)(F)F)ccc2Cl)n1 [Example 1347, 2-(1-[2-chloro-5-(trifluoromethyl)phenyl]-5-{5-[3-(methylsulfonyl)phenyl]-2-thienyl}-1H-pyrazol-3-yl)propan-2-ol]
5 | < 1000 nM | CCc1ccccc1-n1nc(C(C)(C)O)c(Br)c1-c1ccc(-c2cccc(S(C)(=O)=O)c2)s1 [Example 1358, 2-[4-bromo-1-(2-ethylphenyl)-5-{5-[3-(methylsulfonyl)phenyl]-2-thienyl}-1H-pyrazol-3-yl]propan-2-ol]
6 | < 1000 nM | COC(=O)c1cc(-c2ccc(-c3cccc(S(=O)(=O)C(C)C)c3)s2)n(-c2ncccc2C(F)(F)F)n1 [Example 1170, methyl 5-(5-{3-[(1-methylethyl)sulfonyl]phenyl}-2-thienyl)-1-[3-(trifluoromethyl)pyridin-2-yl]-1H-pyrazole-3-carboxylate]
7 | < 1000 nM | Cc1cc(-c2cccc(S(C)(=O)=O)c2)ccc1-n1nc(C(C)(C)O)c(Cl)c1-c1ccccc1C(F)(F)F [Example 1420, 2-(4-chloro-1-(3-methyl-3′-(methylsulfonyl)biphenyl-4-yl)-5-(2-(trifluoromethyl)phenyl)-1H-pyrazol-3-yl)propan-2-ol]
8 | < 1000 nM | CC(C)(O)c1cc(-c2ccc(-c3cccc(S(C)(=O)=O)c3)s2)n(-c2c(Cl)cccc2Cl)n1 [Example 1239, 2-[1-(2,6-dichlorophenyl)-5-{5-[3-(methylsulfonyl)phenyl]-2-thienyl}-1H-pyrazol-3-yl]propan-2-ol]
9 | < 1000 nM | CC(C)(O)c1cccc(-n2nc(C(F)(F)F)cc2-c2ccc(-c3cccc(S(C)(=O)=O)c3)s2)c1 [Example 1187, 2-{3-[5-{5-[3-(methylsulfonyl)phenyl]-2-thienyl}-3-(trifluoromethyl)-1H-pyrazol-1-yl]phenyl}propan-2-ol]
10 | 1000 to 10000 nM | Cc1cc(CC(=O)O)ccc1-c1ccc(-c2cc(C(F)(F)F)nn2-c2ncccc2C(F)(F)F)s1 [Example 1155, [3-methyl-4-(5-{3-(trifluoromethyl)-1-[3-(trifluoromethyl)pyridin-2-yl]-1H-pyrazol-5-yl}-2-thienyl)phenyl]acetic acid]
11 | 1000 to 10000 nM | CC(C)(O)c1cc(-c2ccc(-c3cccc(S(C)(=O)=O)c3)s2)n(-c2cccc(C(F)(F)F)c2F)n1 [Example 1333, 2-(1-[2-fluoro-3-(trifluoromethyl)phenyl]-5-{5-[3-(methylsulfonyl)phenyl]-2-thienyl}-1H-pyrazol-3-yl)propan-2-ol]
12 | 1000 to 10000 nM | CS(=O)(=O)CCN1CCN(C(=O)c2ccc(-c3cc(C(F)(F)F)nn3-c3ccccc3Cl)cc2)CC1 [Example 1365, 1-({4-[1-(2-chlorophenyl)-3-(trifluoromethyl)-1H-pyrazol-5-yl]phenyl}carbonyl)-4-[2-(methylsulfonyl)ethyl]piperazine]
13 | < 1000 nM | CC(C)(O)c1cc(-c2ccc(-c3cccc(S(C)(=O)=O)c3)s2)n(-c2cc(Cl)ccc2Oc2ccccc2)n1 [Example 1212, 2-(1-[5-chloro-2-(phenyloxy)phenyl]-5-{5-[3-(methylsulfonyl)phenyl]-2-thienyl}-1H-pyrazol-3-yl)propan-2-ol]
